Test results: PubChem BioAssay AID248 (DTP/NCI, 2004)
Values joined by “and” are separate entries in the source; they are usually repeats but may differ in a detail not shown here. Identical values can stand only once. Toxic doses and inconclusive results are not listed.

Tested on: L1210 leukemia ip in BDF1 mice, survival T/C
Assay: NCI In Vivo Anticancer Drug Screen. Data for tumor model L1210 Leukemia (intraperitoneal) in B6D2F1 (BDF1) mice
Settings: endpoint: mean survival time, higher = longer survival
In short: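 Survival endpoint. Drug-treated group vs vehicle group, expressed as T divided by C. Tumor passaged by transplantation.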

[1] = dose: 400.0 mg/kg/injection, schedule: Q01DX001 (ip), vehicle: saline
[2] = dose: 100.0 mg/kg/injection, schedule: Q04DX003 (ip), vehicle: Klucel (hydroxypropylcellulose) (HPC)
[3] = dose: 200.0 mg/kg/injection, schedule: Q04DX003 (ip), vehicle: Klucel (hydroxypropylcellulose) (HPC)
[4] = dose: 400.0 mg/kg/injection, schedule: Q04DX003 (ip), vehicle: Klucel (hydroxypropylcellulose) (HPC)
[5] = dose: 100.0 mg/kg/injection, schedule: Q01DX009 (ip), vehicle: Klucel (hydroxypropylcellulose) (HPC)
[6] = dose: 100.0 mg/kg/injection, schedule: Q04DX003 (ip), vehicle: other
[7] = dose: 200.0 mg/kg/injection, schedule: Q01DX009 (ip), vehicle: Klucel (hydroxypropylcellulose) (HPC)
[8] = dose: 200.0 mg/kg/injection, schedule: Q04DX003 (ip), vehicle: other
[9] = dose: 400.0 mg/kg/injection, schedule: Q04DX003 (ip), vehicle: other
[10] = dose: 100.0 mg/kg/injection, schedule: Q01DX001 (ip), vehicle: saline
[11] = dose: 200.0 mg/kg/injection, schedule: Q01DX001 (ip), vehicle: saline
[12] = dose: 100.0 mg/kg/injection, schedule: Q04DX002 (ip), vehicle: Klucel (hydroxypropylcellulose) (HPC)
[13] = dose: 200.0 mg/kg/injection, schedule: Q04DX002 (ip), vehicle: Klucel (hydroxypropylcellulose) (HPC)
[14] = dose: 400.0 mg/kg/injection, schedule: Q04DX002 (ip), vehicle: Klucel (hydroxypropylcellulose) (HPC)
[15] = dose: 400.0 mg/kg/injection, schedule: Q01DX009 (ip), vehicle: Klucel (hydroxypropylcellulose) (HPC)

CCC1(CC)N=C2OCCN2C1=O
T/C (dose: 12.5 mg/kg/injection, schedule: Q04DX003 (ip), vehicle: saline with Tween-80): 97 % of control | T/C (dose: 25.0 mg/kg/injection, schedule: Q04DX003 (ip), vehicle: saline with Tween-80): 95 % of control | T/C (dose: 50.0 mg/kg/injection, schedule: Q04DX003 (ip), vehicle: saline with Tween-80): 97 % of control | T/C (dose: 100.0 mg/kg/injection, schedule: Q04DX003 (ip), vehicle: saline with Tween-80): 94 % of control | T/C (dose: 200.0 mg/kg/injection, schedule: Q04DX003 (ip), vehicle: saline with Tween-80): 91 % of control and 92 % of control | T/C (dose: 300.0 mg/kg/injection, schedule: Q04DX003 (ip), vehicle: saline with Tween-80): 106 % of control

COc1cccc(NC(=O)N(CCCl)N=O)c1
T/C (dose: 4.5 mg/kg/injection, schedule: Q01DX001 (ip), vehicle: carboxymethylcellulose (CMC)): 122 % of control | T/C (dose: 18.0 mg/kg/injection, schedule: Q01DX001 (ip), vehicle: carboxymethylcellulose (CMC)): 159 % of control | T/C (dose: 26.0 mg/kg/injection, schedule: Q01DX001 (ip), vehicle: carboxymethylcellulose (CMC)): 151 % of control | T/C (dose: 40.0 mg/kg/injection, schedule: Q01DX001 (ip), vehicle: carboxymethylcellulose (CMC)): 188 % of control | T/C (dose: 60.0 mg/kg/injection, schedule: Q01DX001 (ip), vehicle: carboxymethylcellulose (CMC)): 87 % of control | T/C (dose: 93.0 mg/kg/injection, schedule: Q01DX001 (ip), vehicle: carboxymethylcellulose (CMC)): 87 % of control

CC(=O)OCC1OC(n2ccc(NC(=S)Nc3ccn(C4OC(COC(C)=O)C(OC(C)=O)C4OC(C)=O)c(=O)n3)nc2=O)C(OC(C)=O)C1OC(C)=O (stereo not drawn)
T/C [1]: 100 % of control | T/C (dose: 400.0 mg/kg/injection, schedule: Q04DX003 (ip), vehicle: saline): 105 % of control | T/C (dose: 800.0 mg/kg/injection, schedule: Q01DX001 (ip), vehicle: saline): 96 % of control | T/C (dose: 800.0 mg/kg/injection, schedule: Q01DX009 (ip), vehicle: saline): 116 % of control | T/C (dose: 800.0 mg/kg/injection, schedule: Q04DX003 (ip), vehicle: saline): 98 % of control | T/C (dose: 1600.0 mg/kg/injection, schedule: Q01DX001 (ip), vehicle: saline): 96 % of control | T/C (dose: 1600.0 mg/kg/injection, schedule: Q04DX003 (ip), vehicle: saline): 100 % of control

Cn1nc([N+](=O)[O-])sc1=N
T/C [2]: 98 % of control | T/C [3]: 98 % of control | T/C [4]: 101 % of control

COc1cc(CCNC(=O)Cc2ccc(OCc3ccccc3)cc2)ccc1OCc1ccccc1
T/C (dose: 50.0 mg/kg/injection, schedule: Q01DX009 (ip), vehicle: Klucel (hydroxypropylcellulose) (HPC)): 91 % of control | T/C [5]: 89 % of control | T/C [6]: 111 % of control | T/C [7]: 89 % of control | T/C [8]: 105 % of control | T/C [9]: 94 % of control

CC1(C)N=C(N)N=C(N)N1c1cccc(OCCCc2ccccc2)c1
T/C (dose: 25.0 mg/kg/injection, schedule: Q01DX001 (ip), vehicle: Klucel (hydroxypropylcellulose) (HPC)): 86 % of control | T/C (dose: 50.0 mg/kg/injection, schedule: Q01DX001 (ip), vehicle: Klucel (hydroxypropylcellulose) (HPC)): 86 % of control | T/C (dose: 100.0 mg/kg/injection, schedule: Q01DX001 (ip), vehicle: Klucel (hydroxypropylcellulose) (HPC)): 91 % of control

Cc1ccc(C)c2c1C1=C(CCCC1)S2(=O)=O
T/C [10]: 96 % of control | T/C [11]: 102 % of control | T/C [1]: 104 % of control

Clc1cc(Cl)c(OCC#CI)cc1Cl
T/C (dose: 50.0 mg/kg/injection, schedule: Q01DX001 (ip), vehicle: saline): 104 % of control | T/C [10]: 98 % of control | T/C [11]: 93 % of control | T/C [1]: 89 % of control

CC(N)C(=O)NC(Cc1ccccc1)C(=O)O (stereo not drawn)
T/C (dose: 100.0 mg/kg/injection, schedule: Q01DX001 (ip), vehicle: acetone): 101 % of control | T/C (dose: 200.0 mg/kg/injection, schedule: Q01DX001 (ip), vehicle: acetone): 97 % of control | T/C (dose: 400.0 mg/kg/injection, schedule: Q01DX001 (ip), vehicle: acetone): 101 % of control

CC1(CCC(=O)O)SCSCS1
T/C [2]: 97 % of control | T/C [3]: 90 % of control | T/C [4]: 92 % of control

CC(C)CCCC(C)C1CCC2C3CC=C4CC(OC(=O)c5cc([N+](=O)[O-])c(N6CC6)c([N+](=O)[O-])c5)CCC4(C)C3CCC12C (stereo not drawn)
T/C (dose: 50.0 mg/kg/injection, schedule: Q01DX001 (sc), vehicle: steriod suspending solution): 110 % of control | T/C (dose: 100.0 mg/kg/injection, schedule: Q01DX001 (sc), vehicle: steriod suspending solution): 96 % of control | T/C (dose: 200.0 mg/kg/injection, schedule: Q01DX001 (sc), vehicle: steriod suspending solution): 102 % of control | T/C (dose: 400.0 mg/kg/injection, schedule: Q01DX001 (sc), vehicle: steriod suspending solution): 96 % of control

CC(OC(=O)CC(=O)CCl)c1ccccc1 (stereo not drawn)
T/C [12]: 102 % of control | T/C [13]: 98 % of control | T/C [14]: 87 % of control

Cc1ccc2c(ccc[n+]2C)c1
T/C (dose: 75.0 mg/kg/injection, schedule: Q01DX001 (ip), vehicle: saline): 103 % of control | T/C (dose: 150.0 mg/kg/injection, schedule: Q01DX001 (ip), vehicle: saline): 106 % of control

Cc1ccc(NC(=S)Nc2ccccc2)c(C)c1
T/C (dose: 100.0 mg/kg/injection, schedule: Q01DX001 (ip), vehicle: other): 89 % of control | T/C [5]: 102 % of control | T/C [12]: 87 % of control | T/C (dose: 200.0 mg/kg/injection, schedule: Q01DX001 (ip), vehicle: other): 94 % of control | T/C [7]: 97 % of control | T/C [13]: 90 % of control | T/C (dose: 400.0 mg/kg/injection, schedule: Q01DX001 (ip), vehicle: other): 97 % of control | T/C [15]: 94 % of control | T/C [14]: 106 % of control

CN1CCCCC1CCN1c2ccccc2Sc2ccc(Cl)cc21 (stereo not drawn)
T/C (dose: 3.12 mg/kg/injection, schedule: Q01DX009 (ip), vehicle: saline): 96 % of control | T/C (dose: 6.25 mg/kg/injection, schedule: Q01DX009 (ip), vehicle: saline): 97 % of control | T/C (dose: 12.5 mg/kg/injection, schedule: Q01DX009 (ip), vehicle: saline): 100 % of control | T/C (dose: 25.0 mg/kg/injection, schedule: Q01DX009 (ip), vehicle: saline): 97 % of control

CCCCCCCc1cc(=O)n(-c2ccc([N+](=O)[O-])cc2)n1C
T/C [2]: 92 % of control | T/C [3]: 91 % of control | T/C [4]: 94 % of control

CSc1ncc2ncn(C3OC(CO)C(O)C3O)c2n1 (stereo not drawn)
T/C (dose: 100.0 mg/kg/injection, schedule: Q01DX001 (ip), vehicle: carboxymethylcellulose (CMC)): 108 % of control | T/C [5]: 91 % of control | T/C [6]: 110 % of control | T/C (dose: 200.0 mg/kg/injection, schedule: Q01DX001 (ip), vehicle: carboxymethylcellulose (CMC)): 102 % of control | T/C [7]: 98 % of control | T/C [8]: 95 % of control | T/C (dose: 400.0 mg/kg/injection, schedule: Q01DX001 (ip), vehicle: carboxymethylcellulose (CMC)): 98 % of control | T/C [15]: 89 % of control | T/C [9]: 100 % of control
